The values below come from US10494379B2, “6-oxa-3,9,15-triaza-bicyclo[9.3.1]pentadeca-1(14),11(15),12-triene derivatives based compounds and their application as ligands of essential metal ion based MRI and 52MN based PET contrast agents” (DEBRECENI EGYETEM, priority 2015, dated 2019).

Molecules are shown by their SMILES.

Series [1] is described as follows: Equilibrium study: protonation constants and total basicity of the ligands. The settings on record: 25° C., 0.15M NaCl. It counts as physicochemical. Here is the method:
(§1) During the physico-chemical studies of tOPC2A, tOPC2M^Pyp and tOPC2M^Pro compounds prepared according to Example 1, 2, and 5, their protonation constants, as well as equilibrium behaviour and kinetic inertness of their Mn(II) complexes was studied in detail, and the characteristic relaxivity values of the complexes were determined in the presence and absence of HSA (Human Serum Albumin), at 25 and 37° C. and physiological pH. All studies were performed in the presence of 0.15 M NaCl, the same concentration as that of the electrolyte under physiological conditions.
(§2) The results of equilibrium study are summarized in Table 1, in addition to the protonation constants, total basicity of ligands and stability constants of their Mn(II) complexes, the pMn value calculated for complexes are also represented in the table.

Series [2] can be described thus: Equilibrium study: stability constants of Mn(II) complexes and calculated pMn. The settings on record: 25° C., 0.15M NaCl; for pMn: calculated from equilibrium constants at pH = 7.4 and cMn = cL = 10^−5 M. Format: physicochemical. The protocol:
as §1, §2
Based on the pMn values presented in Table 1 (calculated using the equilibrium constants at pH=7.4 and cMn=cL=10^−5 M), it can be concluded that the studied Mn(II) complexes are formed in 100% at physiological pH, which is an essential aspect of the practical use.

For series [3] the following is noted: literature values, 'under the same conditions'; cited from earlier work.
The conditions of series [4]: cited from earlier work.

Take `O=C(O)C1CCCN1C(=O)CN1CCOCCN(CC(=O)N2CCCC2C(=O)O)Cc2cccc(n2)C1` (stereo not shown) [tOPC2AM^Pro]: in series [1], the “logK1 (protonation constant)” value is 7.37(3), the “logK2 (protonation constant)” value is 5.14(4), the “logK3 (protonation constant)” value was 3.26(4) and the “logK4 (protonation constant)” value is given as 2.40(4). In series [1], the “ΣlogKi^H (total basicity)” value is 18.17. In series [2], the “logKMnL (stability constant of Mn(II) complex)” value (shortened to “logKMnL”) was 10.03(1) and the pMn is 7.37.
For `O=C(CN1CCOCCN(CC(=O)N2CCCCC2)Cc2cccc(n2)C1)N1CCCCC1` [tOPC2AM^Pyp, 3,9-bis[2-oxo-2-(piperidin-1-yl)-ethyl]-6-oxa-3,9,15-triaza-bicyclo[9.3.1]pentadeca-1(14),11(15),12-triene], in series [1], the “logK1 (protonation constant)” value is recorded as 7.91(2), the “logK2 (protonation constant)” value is reported as 5.51(3) and the “ΣlogKi^H (total basicity)” value is given as 13.42. Moreover, in series [2], the “logKMnL” value is 10.84(4) and the pMn is 7.60.
Regarding `CNC[C@H](O)[C@@H](O)[C@H](O)[C@H](O)CO.CNC[C@H](O)[C@@H](O)[C@H](O)[C@H](O)CO.O=C([O-])CN(CCN(CC(=O)[O-])CC(=O)O)CCN(CC(=O)[O-])CC(=O)O.[Gd+3]` [MAGNEVIST], in series [3], the “r1 (relaxivity)” value was 4.02 mM⁻¹ s⁻¹. Moreover, the “Gd(III) release at 37° C. relative to value calculated from experiments at 25° C.” value in series [4] (37° C. vs 25° C.) is 4.4 fold. For the same compound, the “Gd(III) ion released during in vivo dissociation” value in series [4] (37° C.) is given as 2.2%.
With `O=C(O)CN1CCOCCN(CC(=O)O)Cc2cccc(n2)C1` [tOPC2A, 4-oxo-1,7-diaza-2,6-pyridinophane-diacetate], in series [1], the “logK1 (protonation constant)” value is 7.73(2), the “logK2 (protonation constant)” value is 7.66(1), the “logK3 (protonation constant)” value is given as 2.13(1) and the “ΣlogKi^H (total basicity)” value was found to be 17.52. Also, in series [2], the “logKMnL” value is listed as 13.03(1) and the pMn is listed as 8.59.
Consider `CNC[C@H](O)[C@@H](O)[C@H](O)[C@H](O)CO.O=C([O-])CN1CCN(CC(=O)[O-])CCN(CC(=O)O)CCN(CC(=O)[O-])CC1.[Gd+3]` [DOTAREM], for which, in series [3], the “r1 (relaxivity)” value was 3.83 mM⁻¹ s⁻¹.
